From paper PMC7563358, “Prolonging the Half-Life of Histone Deacetylase Inhibitor Belinostat via 50 nm Scale Liposomal Subcutaneous Delivery System for Peripheral T-Cell Lymphoma” (Cancers, 2020)
In brackets after ≈: the same amount, converted by molar mass. Like-named read-outs stand apart in the source and are kept apart here.

Experiments:
[1] = pH 7.4; cited from earlier work
[2] = In vivo toxicity: complete blood count and liver function markers; conditions: balb/c mice, subcutaneous, 0.333 mg/g, four hours after treatment
Procedure: BALB/c mice were administered with subcutaneous injections with doses of 0.33 mg/g of belinostat free drug and belinostat-loaded liposomal formulations. […] Blood was analyzed for number of erythrocytes, platelets (Plt) and total white blood cells using an automated blood analyzer (XT-1800i; Sysmex, Kobe, Japan). Hemoglobin, red blood cells and hepatic function were also analyzed. Reference values were obtained from Charles River Laboratory. ALT and AST were also evaluated.

[3] = In vivo pharmacokinetics after subcutaneous administration; conditions: Balb/c mice, single dose 0.333 mg/g
Procedure: The in vivo pharmacokinetic study was performed on healthy male BALB/c mice (weight: 16–20 g) obtained from the Laboratory Animal Center of the National Science Council, Taipei, Taiwan. All animal experiments were conducted in accordance with institutional guidelines and approved by the Animal Care and Use Committee of Kaohsiung Medical University, Kaohsiung, Taiwan (KMUIACUC-107146). All animals were starved overnight prior to the experiments.
BALB/c mice were anesthetized by halothane vapor with a vaporizer system. Mice were randomly divided into four groups, including the control group. Belinostat was dissolved in a mixture of 10% DMSO, 10% Cremophor EL, 80% water and a series of liposomal formulations (PC group, PS group, and PC/PS mixture group). It was then administered by subcutaneous injection with a dose of 0.33 mg/g. At time intervals of 5, 10 and 30 min and 1, 2, 3 and 4 h, 100 μL tail vein blood samples were collected in heparin-containing tubes (Vacutainer; BD, Franklin Lakes, NJ, USA) and immediately centrifuged at 3000× g for 10 min. The plasma was collected and stored at −20 °C. Mice were killed at the final time point and liver, spleen, lungs and kidneys were collected, washed with PBS and stored at −20 °C.
Plasma samples (40 μL) were mixed with 20 μL of internal standard solution (carbamazepine […]) and 1000 μL of methanol was added to induce protein precipitation. The mixture was centrifuged at 3000× g for 10 min and the supernatant was evaporated under vacuum for 2 h. The final dry residue was resuspended in methanol and analyzed by HPLC. Organs were homogenized in 1 mL PBS at 17,800 rpm for 30 s. Subsequently, following the same process, homogenized organs were mixed with internal standard solution and acetonitrile and analyzed by HPLC.
Correlation coefficients for the pharmacokinetic compartmental model were calculated and predicted using Phoenix WinNonlin V8.1 software (Certara, St. Louis, MO, USA). The area under the concentration–time curve (AUC0–∞) was calculated using the trapezoidal rule. Half-life (T½) and the clearance (Cl), volume of distribution (Vd), absorption rate (Ka) and elimination rate (Ke) were also calculated by software.

[4] = design: method as in PMID 26921086; conditions: cited from earlier work
[5] = tested on: HuT-78 cells; assay: Cell cytotoxicity (CCK-8) on HuT-78; assay type: cell-based; conditions: Homo sapiens, HuT78; HuT-78, 72 h, CCK-8, n = 6
Procedure: (§1) The cutaneous T-cell lymphoma cell line (HuT-78) was purchased from the Bioresource Collection and Research Center (BCRC, Hsinchu, Taiwan). HuT-78 cells were incubated in 79% Iscove’s modified Dulbecco’s medium (IMDM) with 20% FBS and 1% liquid penicillin–streptomycin and kept in a humidified atmosphere containing 5% CO2 at 37 °C. HuT-78 cells were seeded on 96 well culture plates at a cell density of 1.5 × 10^5 cells per well. After overnight incubation, the medium was replaced with fresh medium containing belinostat free drug and belinostat-loaded liposomal formulations at final concentrations of 0.05, 0.1, 0.5, 1, 5 and 10 μM for 72 h. Cells were washed with PBS and reacted with 10 μL Cell Counting Kit-8 (CCK-8, Dojindo, Kumamoto, Japan) for 2 h. The absorbance was read at 450 nm by an enzyme-linked immunosorbent-assay reader (BioTek Epoch; Thermo Fisher Scientific, Waltham, MA, USA) to measure the quantity of surviving cells. IC50 was calculated using a four-parameter logistic function standard curve analysis of the dose response. The cell cytotoxicity was calculated using the following equation:(2) Cell viability %= ODsample−ODblank/ODcontrol−ODblank×100 % where OD denotes the optical density, ODcontrol represents 100% survival, and ODblank represents no cells.

[6] = In vitro release by dialysis method with fitting to release models; assay type: physicochemical
Procedure: An in vitro release study was performed using a dialysis method. Dialysis bags with a molecular-weight cutoff of 6000–8000 Da (pore size 1.8 nm; Orange Scientific, Braine-l’Alleud, Belgium) were soaked with distilled deionized water for 12 h before the experiment. Dialysis bags containing SN38-loaded liposomes, or SN38 solution, were subsequently incubated in flasks containing 15 mL medium (phosphate buffered saline/ethanol 1:1 v/v) in a 37 °C water bath. At appropriate intervals, 500 μL aliquots of the medium were withdrawn for analysis and immediately replaced with an equal volume of fresh medium. Release kinetics were investigated using different models, including zero-order, first-order and Higuchi kinetics. Correlation coefficients and each release equation were calculated from the respective plots.

[7] = In vitro cytotoxicity of PBMCs; assay type: cell-based; conditions: male, human, peripheral blood mononuclear cells (PBMCs); 10 μM of belinostat
Procedure: as §1, with “Cells were washed with PBS and reacted with 10 μL Cell Counting Kit-8 (CCK-8, Dojindo, Kumamoto, Japan) for 2 h.” left out
Human peripheral blood mononuclear cells (PBMCs) were isolated from the peripheral blood from a healthy volunteer. […] After overnight incubation, the cytotoxicity assay was evaluated. […]

[8] = cited from earlier work

**Q.** Which Solubility [1] does the source give for `O=C(/C=C/c1cccc(S(=O)(=O)Nc2ccccc2)c1)NO` [belinostat, Belinostat] here?
**A.** 80 µg/mL (≈ 251 µM)

**Q.** What about the ALT [2] of the same compound?
**A.** 125 ± 4.57 U/L

**Q.** What about the Gra [2] of the same compound?
**A.** 13.47 ± 3.21%

**Q.** And the Hb [2]?
**A.** 13.63 ± 2.16 g/dL

**Q.** And the Hct [2]?
**A.** 39.58 ± 3.80%

**Q.** And the Lym [2]?
**A.** 78.21 ± 6.56%

**Q.** And the Mon [2]?
**A.** 10.95 ± 2.52%

**Q.** What about the Plt count [2] of the same compound?
**A.** 230 ± 45.72 10^9/L

**Q.** And the RBC count [2]?
**A.** 9.29 ± 1.28 10^12/L

**Q.** And the ST [2]?
**A.** 290 ± 34.48 U/L

**Q.** And the WBC count [2]?
**A.** 3.42 ± 0.67 10^9/L

**Q.** And the Cl ([3]; n = 3)?
**A.** 404.50 ± 138.35 L/h/kg

**Q.** And the “Ka (absorption rate)” value ([3]; n = 3)?
**A.** 5.06 ± 2.00 h⁻¹

**Q.** And the Vd ([3]; n = 3)?
**A.** 1735.75 ± 414.86 L/kg

**Q.** And the AUC(0-inf) ([3]; male, mouse, plasma, sc, n = 3)?
**A.** 17500 ± 5990 ng·h/mL

**Q.** What about the Cmax ([3]; male, mouse, plasma, sc, n = 3) of the same compound?
**A.** 3390 ± 740 ng/mL

**Q.** And the Tmax ([3]; male, mouse, plasma, sc, n = 3)?
**A.** 0.69 ± 0.31 h

**Q.** What about the half-life ([3]; male, mouse, plasma, sc, n = 3) of the same compound?
**A.** 3.29 ± 1.84 h

**Q.** What about the k el ([3]; male, mouse, plasma, sc, n = 3, read-out: Ke (elimination rate) (converted)) of the same compound?
**A.** 6.94e-05 s⁻¹

**Q.** What about the half-life [4] of the same compound?
**A.** 1.1 h

**Q.** And the IC50 [5]?
**A.** 1.8 ± 0.16 µM

**Q.** And the “Time until release completely exhausted” value [6]?
**A.** ≤ 4 h

**Q.** And the Initial burst release ([6]; within 2 h)?
**A.** 80%

**Q.** And the viability at 72 h, 10 µM [7]?
**A.** 20%

**Q.** And the “Patients with low platelet count” value [8]?
**A.** 10–29%

**Q.** And the “Patients with low red blood cell counts” value ([8]; intravenous (IV) infusion over 30 min)?
**A.** more than 30%
